We go through one compound from patent US20090253634A1, “Methods and Compositions for the Treatment of Gastrointestinal Disorders” (MICROBIA, INC., priority 2005, published 2009).

Bridge positions count the residues as written; N and C are the ends. Peptide text beside a SMILES is read from it.

The data set in a line: oral bioavailability in mice, radioimmunoassay (RIA) detection. The conditions noted are these: female, CD-1, mouse, in vivo, 8 mg/kg intravenous, read-out: AUCi.v.,(0-4h) (converted). More on the design: species or system CD-1 mice. As for the experimental part:
Oral bioavailability was also determined using a radioimmunoassay (RIA) detection method. Female CD-1 mice (Charles River, Wilmington, Mass.) weighing approximately 25g (7-8 weeks old) or female CD rats (Charles River, Wilmington, Mass.) weighing approximately 153 g were included in this study. Monoclonal antibody, 20C1 (Brandwein et al. 1985 Infect Immun. 47:242-246), which recognizes SEQ ID NO:7 and ^125I labeled-SEQ ID NO:7, a labeled tracer, were used in these experiments. The labeled tracer was purified by HPLC using a Waters C-18u Bondapak® column (25 cm) previously equilibrated with 10 mM ammonium acetate pH 5.8. […] Blood was drawn from all dosed animals by retro-orbital eye bleeding at specific intervals and test compound levels were analyzed by radioimmunoassay (RIA). […] Radioactivity was measured in a LS 6500 scintillation counter (Beckman-Coulter). The binding efficiency is defined as the percent radioactivity in the B0 sample compared to the input counts. The percent bound in each sample was calculated by the equation: […]
A standard curve was prepared by plotting % B/B0 as a function of the log SEQ ID NO:3 concentration. […] The area under the curve from T=0 to 4 hours (AUC0-4h) was calculated by the software for both p.o. and i.v. dosed animals. […] Oral Bioavailabilty (F) is calculated using the equation: […]

Regarding `C[C@@H]1NC(=O)[C@@H]2CCCN2C(=O)[C@H](CC(N)=O)NC(=O)[C@@H]2CSSC[C@H](N)C(=O)N[C@H]3CSSC[C@H](NC1=O)C(=O)N[C@@H]([C@@H](C)O)C(=O)NCC(=O)N[C@H](C(=O)N[C@@H](Cc1ccc(O)cc1)C(=O)O)CSSC[C@H](NC(=O)[C@H](Cc1ccc(O)cc1)NC(=O)[C@H](CCC(=O)O)NC3=O)C(=O)N2` [SEQ ID NO:3] (H-CCEYCCNPACTGCY-OH; disulfide 1-6, 2-10, 5-13; N-terminus and C-terminus assumed), the AUC is 27700 ng·h/mL.
